Tested on: AMPK
Experiment: AMPK Western blot analysis of liver tissue of WD mice
Assay type: in vivo, mice (male B6 129SF1/J)
Conditions: week 16; dose-dependent, reverses WD-induced downregulation
Excerpt: Animal experiments. Male B6 129SF1/J mice at 6 weeks of age were obtained from Jackson Laboratories (Bar Harbor, ME). Mice were acclimatized to the animal facility for one week. At the start of the experiment, mice were randomly divided into four groups (n=10 for each group). Three of the four groups were fed ad libitum a Western diet (WD) with 40% Kcal from fat and containing 0.15% cholesterol (D12079B, Research Diets) and a sugar water (SW) solution (23.1 g/L d-fructose+18.9 g/L d-glucose) as previously described (DIAMOND model (15)). After 8 weeks, the three groups of WD-fed mice were randomly selected for treatment with vehicle (WD group) or low (WD-50 group) or high dose (WD-100 group) of […]. The WD group was fed WD and drank sugar water. The WD-50 and WD-100 groups were fed WD and drank sugar water containing, respectively, 50 or 100 mg […] per kg body weight. The treatments were continued for another 8 weeks. Water bottles containing SW and […] or only SW were changed every other day. […] The protein concentration was determined using the BCA protein assay kit (Pierce). […] Proteins were quantified by normalizing the intensity of the protein band of interest to the intensity of the j-actin band in the same lane using the Image Lab software (Bio-Rad, Hercules, CA).

## O=C([O-])Cc1c[nH]c2ccccc12.[Na+] [I3A, Indole-3-acetate sodium salt]
  liver AMPK and p-AMPK levels: increased both AMPK as well as p-AMPK

Source: patent publication US20240189279A1, “IMMUNOMODULATORY COMPOSITIONS AND METHODS OF USE THEREOF” (THE TEXAS A&M UNIVERSITY SYSTEM, priority 2022, published 2024)
